Patent publication US6380262B1, “5-membered ring compounds” (Takara Shuzo Co., Ltd., priority 1998, dated 2002)
Like-named read-outs stand apart in the source and are kept apart here. Numbered stars: 1 amine (or outer) side, 2 acyl side, 3 side chain; on linkers, the order of the positions; unused ones are H or OH. Bridge positions count the residues as written; N and C are the ends. Square brackets hold non-standard residues; d marks the D form. Peptide text beside a SMILES is read from it. I, II: the chains in the order shown. Actinocin(9to1) = Cc1c2oc3c(C)ccc(C(=O)[*:1])c3nc-2c(C(=O)[*:2])c(N)c1=O; NMeV = CN[C@H](C(=O)O)C(C)C; Sar = CNCC(=O)O

Key:
[1] = tested on: HL-60 cells; test: viability by Trypan Blue staining (Viability50); format: cell-based; details: Homo sapiens, read-out: Viability50 (concentration that results in a viability of 50%)
Method: (§1) (3) HL-60 cells were cultured at 37° C. in RPMI 1640 medium (Bio Whittaker) containing 10% fetal calf serum (JRH) which had been treated at 56° C. for 30 minutes and suspended in RPMI 1640 medium at a concentration of 2.5×10^5 cells/5 ml.
(§2) 10 μl of one of appropriate dilutions of the hexanoyl GM solutions in 20 mM Tris-HCl buffer or the di-t-butyl GD solution in 70% aqueous ethanol solution was added to 5 ml of the suspension. The mixtures were incubated at 37° C. for 24 hours in the presence of 5% CO2. 10 μl of aqueous actinomycin D (Sigma) solution (0.5 mg/ml), which is known as a reagent that induces apoptosis, was used in place of the sample and the mixture was incubated under the same conditions for confirmation.
Furthermore, a portion of the cells cultured for 24 hours as described above was stained with 0.4% Trypan Blue and examined under an optical microscope. The number of viable cells which were not stained and the number of dead cells which were stained blue were counted. The concentration of each of the samples that results in a viability of 50% (Viability50 μM) was determined. As a result, Viability50 for hexanoyl GM was 9.22 μM and that for di-t-butyl GD was 46.3 μM.

[2] = single oral administration to a rat (death); format: in vivo; details: single dosage of 1000 mg/kg
Method: No toxicity is observed when a physiologically effective amount of the compound of the present invention or an optical isomer thereof, or a salt thereof is administered.

[3] = target: T1, topoisomerase II (Homo sapiens, UniProt P11388); test: topoisomerase II inhibition, pBR322 DNA relaxation on agarose gel; format: biochemical
T1 construct: purchased TopoGEN
Method: (§3) (1) 2 μl of topoisomerase II (TopoGEN; 2 units/μl), 2 μl of 10-fold concentrated buffer [0.5 M Tris-HCl (pH 8.0), 1.2 M KCl, 0.1 M MgCl2, 5 mM adenosine triphosphate, 5 mM dithiothreitol], 2 μl of 0.1% bovine serum albumin (Takara Shuzo), 11 μl of distilled water and 2 μl of distilled water (control) or 2 μl of one solutions of hexanoyl GM adjusted to varying concentrations with water were mixed together. 1 μl of 0.25 μg/μl pBR322 DNA (Takara Shuzo) was added thereto. The resulting mixture was reacted at 37° C. After reacting for 30 minutes, 2 μl of an aqueous solution containing 1% sodium dodecyl sulfate, 50% glycerol and 0.02% Bromophenol Blue was added thereto to stop the reaction.
20 μl of the reaction mixture was applied to 1% agarose gel prepared using agarose L03 (Takara Shuzo) and TAE buffer [40 mM Tris, 5 mM sodium acetate, 1 mM ethylenediaminetetraacetic acid disodium salt; adjusted to pH 7.8 using acetic acid] and electrophoresed in TAE buffer. After electrophoresis, the gel was soaked in a 1 μg/ml aqueous ethidium bromide solution. The gel was exposed to ultraviolet rays to visualize the electophoretic pattern of DNA.

[4] = target: T2, topoisomerase I (Homo sapiens, UniProt P11387); test: topoisomerase I inhibition, pBR322 DNA relaxation on agarose gel; format: biochemical; details: topoisomerase I (TopoGEN), 37° C., 30 minutes
T2 construct: purchased TopoGEN
T2 sequence (P11387 1-765): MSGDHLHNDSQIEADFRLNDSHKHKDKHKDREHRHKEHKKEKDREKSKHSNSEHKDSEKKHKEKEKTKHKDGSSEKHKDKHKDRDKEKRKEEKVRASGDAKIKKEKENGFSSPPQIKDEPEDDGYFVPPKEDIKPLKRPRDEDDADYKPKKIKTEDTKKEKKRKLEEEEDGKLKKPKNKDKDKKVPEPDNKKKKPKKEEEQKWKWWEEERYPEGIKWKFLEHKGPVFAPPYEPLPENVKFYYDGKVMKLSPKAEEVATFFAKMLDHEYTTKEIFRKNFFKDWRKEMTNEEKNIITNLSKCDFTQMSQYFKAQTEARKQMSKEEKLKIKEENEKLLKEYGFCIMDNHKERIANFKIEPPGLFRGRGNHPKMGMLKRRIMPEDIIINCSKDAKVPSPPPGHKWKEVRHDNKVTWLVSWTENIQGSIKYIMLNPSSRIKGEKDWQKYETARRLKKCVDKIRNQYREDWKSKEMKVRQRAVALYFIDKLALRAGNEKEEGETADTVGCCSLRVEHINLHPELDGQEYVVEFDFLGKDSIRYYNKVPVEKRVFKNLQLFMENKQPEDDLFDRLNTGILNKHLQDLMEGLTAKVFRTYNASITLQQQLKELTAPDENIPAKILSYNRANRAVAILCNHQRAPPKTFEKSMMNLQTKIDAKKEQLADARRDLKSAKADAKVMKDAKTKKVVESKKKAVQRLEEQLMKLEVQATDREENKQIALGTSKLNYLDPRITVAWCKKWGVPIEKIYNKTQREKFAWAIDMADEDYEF
Method: as §3
20 μl of the reaction mixture was applied to 1% agarose gel prepared using agarose L03 (Takara Shuzo) and TAE buffer [40 mM Tris, 5 mM sodium acetate, 1 mM ethylenediaminetetraacetic acid disodium salt; adjusted to pH 7.8 using acetic acid] and electrophoresed in TAE buffer. After electrophoresis, the gel was soaked in a 1 μg/ml aqueous ethidium bromide solution. […]
(2) The activity of inhibiting topoisomerase I of hexanoyl GM was determined as described in Example 3-(1) except that topoisomerase I (TopoGEN; 0.01 unit/μl) was used in place of topoisomerase II and a solution containing 100 mM Tris-HCl (pH 7.9), 10 mM EDTA, 1 mM spermidine and 50% glycerol was used as 10-fold concentrated buffer.

[5] = tested on: HL-60 (ATCC CCL-240) cells; test: antiproliferation activity against tumor cells and apoptosis induction, MTT measurement system and optical microscope; format: cell-based, human; details: for induction of apoptosis (apoptosis corpuscles under an optical microscope): HL-60, 96-well plate culture
Method: (1) 100 μl of a suspension containing HL-60 (ATCC CCL-240) cells in RPMI-1640 medium (Nippon Suisan Kaisha) containing 10% fetal calf serum (Gibco) which had been treated at 56° C. for 30 minutes at a concentration of 5×10^4 cells/ml was dispensed into each well of a 96-well microtiter plate. 10 μl of one of 2-fold serial dilutions with water of 8.3 mM hexanoyl GM solution in 25 mM Tris-HCl buffer was added to the well of the plate. The plate was incubated at 37° C. for 48 hours in the presence of 5% CO2. After the cells were examined under an optical microscope, 10 μl of 5 mg/ml 3-(4,5-dimethylthiazol-2-yl)-2,5-diphenyltetrazolium bromide (MTT; Sigma) solution in phosphate buffered saline was added to the well. The plate was incubated for additional 4 hours. 100 μl of 2-propanol containing 0.04 N HCl was added to the well, the mixture was stirred, and the absorbance at 590 nm was measured.
(2) 10 μl of one of 2-fold serial dilutions with 70% aqueous ethanol solution of 19 mM di-t-butyl GD solution in 70% aqueous ethanol solution was added to each well of a 96-well microtiter plate and air-dried. 100 μl of HL-60 suspension was then dispensed as described above. An apoptosis-inducing activity and an antiproliferation activity against tumor cells were examined using a measurement system using MTT.

[6] = tested on: HL-60 cells; test: analysis of DNA fragmentation; format: cell-based, human; details: HL-60, 24 hours; actinomycin D 10 μl of 0.5 mg/ml in 5 ml
Method: as §1, §2
(§4) Measurement of apoptotic cells using FACScan as described in Saibo Kogaku, Bessatsu (Cell Technology, Suppl.) Jikken Protocol Series: Apoptosis Jikken Protocol (Experimental Protocol Series: Experimental Protocols for Apoptosis) (Shujun-sha) pp. 129-130 and analysis of DNA fragmentation as described in Bio Manual UP Series: Saishin Apoptosis Jikken-ho (Bio Manual UP Series: Current Experimental Methods for Apoptosis) (Yodo-sha) pp. 61-63 were carried out using cells cultured in the same manner as that described above.

[7] = tested on: HL-60 cells; test: measurement of apoptotic cells using FACScan; format: cell-based, human; details: HL-60, 24 hours; actinomycin D 10 μl of 0.5 mg/ml in 5 ml
Method: as §1, §2, §4

[8] = tested on: human influenza virus A1/FM/1/47 (ATCC VR-97); test: therapeutic effect in mice infected with influenza virus; format: in vivo, BALB/c mice; details: control 4 out of 11 died
Method: (24) Therapeutic effects of cyclopentenone and 2-hydroxy-4-glutathion-S-yl-2-cyclopenten-1-one were examined by conducting experiments in which mice were infected with influenza virus.
Each of 4 weeks old female BALB/c mice was intranasally infected with 1×10^4 FFU of human influenza virus A1/FM/1/47 (ATCC VR-97) which had been propagated in a hen's egg.
Immediately after the infection with virus, single dose of 1 mg/kg of cyclopentenone, or 3 mg/kg or 30 mg/kg of 2-hydroxy-4-glutathion-S-yl-2-cyclopenten-1-one was intraperitoneally administered to the mouse infected with influenza virus.
Phosphate buffered saline was administered to control mice.
As a result, 4 out of 11 mice in the control group died by day 16. On the other hand, the numbers of dead mice were only 1 out of 11, 1 out of 11 and 1 out of 10 for the groups administered with 1 mg/kg of cyclopentenone, 3 mg/kg of 2-hydroxy-4-glutathion-S-yl-2-cyclopenten-1-one and 30 mg/kg of 2-hydroxy-4-glutathion-S-yl-2-cyclopenten-1-one, respectively.

[9] = single oral administration to a mouse (death); format: in vivo; details: single dosage of 100 mg/kg

T1 sequence (P11388 whole entry): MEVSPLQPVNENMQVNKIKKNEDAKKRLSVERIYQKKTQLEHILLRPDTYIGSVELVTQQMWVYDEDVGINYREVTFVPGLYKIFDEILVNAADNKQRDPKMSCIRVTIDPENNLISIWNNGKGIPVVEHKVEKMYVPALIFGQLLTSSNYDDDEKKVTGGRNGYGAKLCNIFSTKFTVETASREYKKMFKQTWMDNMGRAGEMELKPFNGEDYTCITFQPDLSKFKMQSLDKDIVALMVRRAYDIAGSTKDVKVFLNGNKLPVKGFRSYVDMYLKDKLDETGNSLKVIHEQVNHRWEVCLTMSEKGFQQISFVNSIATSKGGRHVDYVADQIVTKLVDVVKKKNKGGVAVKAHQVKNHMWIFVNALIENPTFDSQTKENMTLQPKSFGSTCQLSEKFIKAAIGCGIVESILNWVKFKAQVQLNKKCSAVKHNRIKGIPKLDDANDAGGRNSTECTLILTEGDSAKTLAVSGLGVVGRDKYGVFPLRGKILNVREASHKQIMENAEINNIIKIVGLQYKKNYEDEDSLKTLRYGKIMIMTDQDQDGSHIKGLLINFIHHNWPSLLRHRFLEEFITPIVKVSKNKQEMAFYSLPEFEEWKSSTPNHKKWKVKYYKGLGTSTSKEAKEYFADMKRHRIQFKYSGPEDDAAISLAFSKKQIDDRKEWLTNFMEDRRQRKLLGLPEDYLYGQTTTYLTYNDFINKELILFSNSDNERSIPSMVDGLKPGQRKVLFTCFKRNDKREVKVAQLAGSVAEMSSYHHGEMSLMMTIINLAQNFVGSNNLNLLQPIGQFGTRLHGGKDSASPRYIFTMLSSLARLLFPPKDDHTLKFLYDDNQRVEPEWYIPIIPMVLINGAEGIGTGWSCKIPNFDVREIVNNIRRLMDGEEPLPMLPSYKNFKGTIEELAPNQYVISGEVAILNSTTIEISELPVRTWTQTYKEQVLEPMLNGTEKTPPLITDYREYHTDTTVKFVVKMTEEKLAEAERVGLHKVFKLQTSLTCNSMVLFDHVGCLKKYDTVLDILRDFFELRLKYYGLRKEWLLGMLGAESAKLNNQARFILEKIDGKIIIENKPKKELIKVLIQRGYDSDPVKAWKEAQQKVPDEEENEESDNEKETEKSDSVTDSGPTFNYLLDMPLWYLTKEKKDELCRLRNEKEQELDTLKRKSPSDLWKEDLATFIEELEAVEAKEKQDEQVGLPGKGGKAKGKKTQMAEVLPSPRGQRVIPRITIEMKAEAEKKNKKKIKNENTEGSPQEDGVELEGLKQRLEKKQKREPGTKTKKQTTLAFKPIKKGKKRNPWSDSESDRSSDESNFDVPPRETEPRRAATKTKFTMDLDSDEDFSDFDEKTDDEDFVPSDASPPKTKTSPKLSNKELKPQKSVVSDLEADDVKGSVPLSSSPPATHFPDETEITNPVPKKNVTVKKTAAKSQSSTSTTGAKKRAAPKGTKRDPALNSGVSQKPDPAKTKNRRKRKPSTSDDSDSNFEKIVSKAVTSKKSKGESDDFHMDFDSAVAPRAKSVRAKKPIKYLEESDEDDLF

CCCCCC(=O)OC1=CC(SC[C@H](NC(=O)CC[C@H](N)C(=O)O)C(=O)NCC(=O)O)CC1=O (stereo partly drawn) [hexanoyl GM, 2-hexanoyloxy-4-glutathion-S-yl-2-cyclopenten-1-one]
IC50 ([1]; HL-60, 24 hours, 0.4% Trypan Blue): 9.22 µM
death after single oral administration [2]: no death was observed
selectivity of inhibition, topoisomerase II as compared with topoisomerase I [3]: selective inhibitory activity on topoisomerase II
concentration at which change of DNA from superhelical type to relaxed type was partially or completely inhibited ([3]; topoisomerase II (TopoGEN), pBR322 DNA, 37° C., 30 minutes): ≥ 100 µM
concentration at which change of DNA from superhelical type to relaxed type was partially inhibited [4]: ≥ 1000 µM
induction of apoptosis (apoptosis corpuscles under an optical microscope) [5]: apoptosis corpuscles were observed
final concentration down to which an antiproliferation activity against tumor cells was clearly exhibited ([5]; HL-60, 48 hours, MTT, 2-fold serial dilutions of 8.3 mM solution): ≥ 6.25 pm

Cc1c2oc3c(C)ccc(C(=O)N[C@@H]4C(=O)N[C@H](C(C)C)C(=O)N5CCC[C@H]5C(=O)N(C)CC(=O)N(C)[C@@H](C(C)C)C(=O)O[C@@H]4C)c3nc-2c(C(=O)N[C@@H]2C(=O)N[C@H](C(C)C)C(=O)N3CCC[C@H]3C(=O)N(C)CC(=O)N(C)[C@@H](C(C)C)C(=O)O[C@@H]2C)c(N)c1=O [actinomycin D] (I: T[dV]P[Sar][NMeV] / II: T[dV]P[Sar][NMeV]; ester I:1-I:C, II:1-II:C; linker I:N-II:N via Actinocin(9to1))
DNA fragmentation [6]: observed
apoptotic cells (FACScan) [7]: observed

CC(C)(C)OC1C(=O)CC(SC[C@H](NC(=O)CC[C@H](N)C(=O)O)C(=O)NCC(=O)O)C1OC(C)(C)C (stereo partly drawn) [di-t-butyl GD, 2,3-di-t-butoxy-4-glutathion-S-yl-1-cyclopentanone]
IC50 ([1]; HL-60, 24 h): 46.3 µM
death after single oral administration [2]: no death was observed
induction of apoptosis (apoptosis corpuscles under an optical microscope) [5]: apoptosis corpuscles were observed
final concentration down to which an antiproliferation activity against tumor cells was clearly exhibited ([5]; HL-60, MTT, 2-fold serial dilutions of 19 mM solution, air-dried in well): ≥ 34 µM

N[C@@H](CCC(=O)N[C@@H](CSC1C=C(O)C(=O)C1)C(=O)NCC(=O)O)C(=O)O (stereo partly drawn) [2-hydroxy-4-glutathion-S-yl-2-cyclopenten-1-one]
death after single oral administration [2]: no death was observed
number of dead mice by day 16 ([8]; 3 mg/kg single intraperitoneal dose immediately after infection): 1 out of 11
number of dead mice by day 16 ([8]; 30 mg/kg single intraperitoneal dose immediately after infection): 1 out of 10

O=C1C=CC(O)C1O (stereo not drawn) [cyclopentenone, 4,5-dihydroxy-2-cyclopenten-1-one]
number of dead mice by day 16 ([8]; 1 mg/kg single intraperitoneal dose immediately after infection): 1 out of 11
death after single oral administration [9]: No death was observed
